Data from US6420367B1, “Pyrimidine derivatives exhibiting antitumor activity” (Shionogo & Co., Ltd., priority 1998, dated 2002).
Values after ≈ are worked out from the molar mass of the structure shown.

How the values were obtained:
[1] = test system: DT-R cells (pRRE3-luc-transfected v-ki-ras-transformed NIH3T3 cells); signal derived from Ras oncogene products; assay: Inhibitory effect against cellular signaling derived from Ras oncogene products: luciferase reporter, dissociation of DT-R from DT-C activity (MAC); format: cell-based, mouse; details: minimal tested concentration at which luciferase activities of DT-C cells and DT-R cells dissociated
Procedure, shortened: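 Value is a minimal active concentration: lowest dose where Ras-responsive reporter (DT-R) luciferase diverges from SV40-minimal-promoter control (DT-C). Both transfected v-Ki-ras NIH3T3 lines received 3-fold serial dilutions for 24 h at 37 °C in 10% FCS medium before lysis and luminometry.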

[2] = test system: human squamous lung cancer Ma44; assay: In vitro cell growth inhibition test, MTT assay; format: cell-based; details: MTT assay 4 days after compound addition
Procedure, shortened: (§1)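 Read-out is MTT-based cell growth inhibition, run in parallel on human lung, colon and pancreatic (PANC-1) tumour lines.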

human colon cancer HT29 = assay: In vitro cell growth inhibition test, MTT assay; format: cell-based; details: MTT assay 4 days after compound addition
Procedure, shortened: as §1

[3] = test system: human squamous lung cancer RERF-RC-AI; assay: In vitro cell growth inhibition test, MTT assay; format: cell-based; details: MTT assay 4 days after compound addition
Procedure, shortened: as §1

[4] = test system: human lung adenocarcinoma A549; assay: In vitro cell growth inhibition test, MTT assay; format: cell-based; details: MTT assay 4 days after compound addition
Procedure, shortened: as §1

[5] = test system: DT-C cells (pGV-P-transfected v-ki-ras-transformed NIH3T3 cells); assay: Luciferase activity in control DT-C cells (IC50-C): non-specific transcription-inhibitory effect or cytotoxicity; format: cell-based, mouse; details: tested concentration nearest to 50% inhibition in DT-C cells; index of non-specific transcription inhibition or cytotoxicity
Text: Test Example 1 Inhibitory Effect Against Cellular Signaling Derived From Ras Oncogene Products
1) Establishment of Cell Lines Used in Assay
Based on the reporter plasmid (pGV-P (Toyo Ink, Japan)), in which luciferase gene was ligated to SV40-derived minimal promoter, we constructed a plasmid designated pRRE3-luc by inserting 3 copies of chemically synthesized oligonucleotides (Sequence: CAGGATATGACTCT, derived from mouse NVL-3 (M. A. Reddy et al.(1992)Mol. Endocrinol., 6, 1051)) into upstream of the promoter. v-ki-ras-transformed NIH3T3 cells (DT cells, provided by Dr. Makoto Noda (Kyoto Univ., School of medicine)) were transfected with this plasmid by liposome-mediated transfection and transfected cell lines stably incorporated and maintained each plasmid were obtained. We named pGV-P and pRRE3-transfected cell line as DT-C and DT-R, respectively and used in the assay described below.
2) Preparation of Samples
i) All the cell lines were cultured in Dulbecco's Modified Essential Medium (DMEM: 10% Fetal Calf Serum(FCS: Hyclone, USA)) including […] kanamycin (Meiji Seika, Japan) in humidified incubator under condition of 5% CO2 at 37° C.
ii) DT-C and DT-R cells were seeded at 2500 cells/well into flat-bottom 96 well multiplate (Sumitomo bakelite) and incubated for 24 hours.
iii) Test compounds were prepared as 1 mg/ml DMSO solution.
iv) The solution of test compounds were added to the culture. Tested compounds are used at the concentration from […] to 0.51 ng/ml with by 3-fold dilution.
v) After 24 hours, the culture supernatant was completely aspirated and […] of cell-lysing solution (PGC-50 (Toyo Ink, Japan)) was added before cells were dried up. In order to the cells were lysed completely, multiwell plates were left at room temperature for 10 to 30 min. The plates were wrapped up and stored at −20° C. till the day of measurement.
3) Measurement of Samples
i) Melt the samples by putting 96 well multiplate at 37° C. and add 90 μl/well 25 mM Tris (pH 7.5).
ii) Transfer 50 μl of the sample (110 μl) to the 96 well microplate for measurement (Microlite 1 (Dynatech)).
iii) Measure the samples by the luminometer, LUMINOUS CT9000D (Dia-Yatron, Japan). We used Pickagene luminescence kit PGL2000 or LT2.0 (Toyo Ink, Japan) as substrates for luminescence measurement (50 μl/well).
4) Judgment of the Results
i) The luciferase activity of DT-C cells and DT-R cells were plotted in the graph where the relative activity and the compound concentration were expressed as Y-axis and X-axis, respectively. We judged by the degree of dissociation between the activities of DT-C cells and DT-R cells as an index.
ii) Concretely, efficacy of the compound was expressed by two values described below.
b) Among the points of concentration tested, the concentration which is the nearest to 50% inhibition concentration at DT-C cells (IC50-C), was shown as an index of non-specific transcription-inhibitory effect or of cytotoxicity. In case of positive compounds, 50% inhibition concentration above the area of active concentration in DT-C cells was expressed as IC50-C.

IC50, Ma44 [2] [mg/L]	IC50, HT29 (human colon cancer HT29) [mg/L]	IC50, RERF-LC-AI [3] [mg/L]	IC50, A549 [4] [mg/L]	Structure (SMILES)	MAC (Minimal Active Concentration) [1] [µg/mL]	IC50-C [5] [mg/L]
2.4 (≈ 6.43 µM)	0.033 (≈ 0.0884 µM)	0.046 (≈ 0.123 µM)	0.1 (≈ 0.268 µM)	CCNC(=Nc1ncncc1CSc1nnc(-c2ccoc2)o1)NCC [Compound D-30]	1.11	>10
0.35 (≈ 0.899 µM)	0.016 (≈ 0.0411 µM)	0.013 (≈ 0.0334 µM)	0.049 (≈ 0.126 µM)	CCNC(=Nc1ncncc1CSc1nnc(-c2ccsc2)o1)NCC [Compound D-21]	0.37	>10
0.065 (≈ 0.141 µM)	0.049 (≈ 0.106 µM)	0.023 (≈ 0.0499 µM)	0.032 (≈ 0.0695 µM)	CCNC(=Nc1nc(C)ncc1CSc1nnc(-c2ccsc2NC(C)=O)o1)NCC [Compound D-36]	0.0412	>10

Second part, the molecule before the results:

Structure (SMILES)	IC50, Ma44 [2] [mg/L]	IC50, HT29 (human colon cancer HT29) [mg/L]	IC50, RERF-LC-AI [3] [mg/L]	IC50, A549 [4] [mg/L]	MAC (Minimal Active Concentration) [1] [µg/mL]	IC50-C [5] [mg/L]
CCCNC(=Nc1nc(C)ncc1CSc1nnc(-c2ccc(N)cc2)o1)NCCC.Cl.Cl [Compound A-160]	–	–	–	–	0.0137	>10
CCNC(=Nc1nc(C)ncc1CSc1nnc(-c2ccc(N)cc2O)o1)NCC [Compound A-96]	–	–	–	–	0.370	>10
CCNC(=Nc1nc(C)ncc1CSc1nnc(-c2ccc([N+](=O)[O-])cc2)o1)NC.Cl [Compound A-163]	–	–	–	–	0.0137	>10
CCNC(=Nc1nc(C)ncc1CSc1nnc(-c2ccccc2N)o1)NCC [Compound A-24]	0.028 (≈ 0.0679 µM)	–	0.0071 (≈ 0.0172 µM)	0.026 (≈ 0.063 µM)	0.0137	3.33 (≈ 8.07 µM)
CCNC(=Nc1ncncc1CSc1nnc(-c2ccc(F)cc2)o1)NCC [Compound A-110]	0.063 (≈ 0.157 µM)	0.0077 (≈ 0.0192 µM)	0.006 (≈ 0.0149 µM)	0.042 (≈ 0.105 µM)	0.123	>10
CCNC(=Nc1nc(C)ncc1CSc1nnc(-c2ccccc2NC(=O)CC)o1)NCC [Compound A-26]	0.055 (≈ 0.117 µM)	–	0.016 (≈ 0.0341 µM)	0.06 (≈ 0.128 µM)	0.370	>10
CCCNC(=Nc1nc(C)ncc1CSc1nnc(-c2ccc([N+](=O)[O-])cc2)o1)NC.Cl [Compound A-164]	–	–	–	–	0.0137	>10
CCNC(=Nc1nc(C)ncc1CSc1nnc(-c2cccnc2N)o1)NCC [Compound D-1]	–	–	–	–	1.11	>10
CCNC(=Nc1nc(C)ncc1CSc1nnc(-c2c(N)cccc2F)o1)NCC [Compound A-51]	0.088 (≈ 0.204 µM)	0.028 (≈ 0.065 µM)	0.012 (≈ 0.0279 µM)	–	0.123	3.33 (≈ 7.73 µM)
